Where two headings read alike, the source gives them in different places.
Assays:
recombinant CYP2C9*1 [1] = target: T1, recombinant CYP2C9*1 (Homo sapiens, UniProt P11712); assay: Steady-state inhibition of S-warfarin metabolism by recombinant CYP2C9; assay type: biochemical
[2] = target: CYP2C9 present in the human liver microsomes (Homo sapiens, UniProt P11712); assay type: biochemical; settings: for Ki fold above the Km for S-warfarin: human liver microsomes, marker Km
plasma proteins = settings: cited from earlier work
CYP2C9 = settings: binds and inhibits CYP2C9, not metabolized; cited from earlier work
recombinant CYP2C9*1 [3] = target: T1, recombinant CYP2C9*1
[4] = target: T2, pooled human liver microsomes (Homo sapiens, UniProt P11712)
T2 sequence (P11712 whole entry): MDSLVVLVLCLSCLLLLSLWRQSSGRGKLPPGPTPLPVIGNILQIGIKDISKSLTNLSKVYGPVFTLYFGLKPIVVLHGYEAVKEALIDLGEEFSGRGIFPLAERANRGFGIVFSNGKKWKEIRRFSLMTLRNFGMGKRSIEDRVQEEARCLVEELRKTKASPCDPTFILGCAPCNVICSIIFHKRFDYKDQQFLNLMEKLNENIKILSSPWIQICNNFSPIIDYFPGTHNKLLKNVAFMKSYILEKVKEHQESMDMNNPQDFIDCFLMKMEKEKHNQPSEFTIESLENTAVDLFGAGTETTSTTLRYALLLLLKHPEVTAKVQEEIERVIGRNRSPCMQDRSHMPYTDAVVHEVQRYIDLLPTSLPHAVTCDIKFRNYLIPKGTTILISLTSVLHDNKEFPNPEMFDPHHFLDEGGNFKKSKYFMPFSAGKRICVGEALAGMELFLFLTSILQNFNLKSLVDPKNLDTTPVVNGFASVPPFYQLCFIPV

recombinant CYP2C9*1 [5] = target: T1, recombinant CYP2C9*1; assay: Uninhibited steady-state metabolism of S-warfarin by recombinant CYP2C9; settings: S-7-hydroxywarfarin formation
[6] = target: T2, pooled human liver microsomes; settings: 7-hydroxywarfarin formation
Recombinant CYP2C9 = Recombinant CYP2C9 (Homo sapiens, UniProt P11712); assay: P450-Glo IC50 screen of recombinant CYP2C9 activity; assay type: biochemical; settings: relative to racemic warfarin IC50
Recombinant CYP2C9, sequence (P11712 whole entry): as above

[7] = 2.0 mg/mL microsomal protein, marker 7-hydroxywarfarin formation
[8] = results based on S-6-hydroxywarfarin formation

CYP2C9 present in the human liver microsomes, sequence (P11712 whole entry): as above

## CC(=O)CC(c1ccccc1)c1c(O)c2cc(O)ccc2oc1=O (centres unmarked) [6OHWAR, 6-hydroxywarfarin]
Recombinant CYP2C9*1 [1]; up to 170 μM inhibitor
  inhibition of S-warfarin metabolism: no inhibition
[2]; [7]
  mechanism: competitive
[2]
  Ki fold above the Km for S-warfarin: approximately 32 fold
Plasma proteins
  fold lower affinity for plasma proteins than warfarin: 3- to 4 fold

## CC(=O)C(O)C(c1ccccc1)c1c(O)c2ccccc2oc1=O (centres unmarked) [10OHWAR, 10-hydroxywarfarin]
Recombinant CYP2C9*1 [1]; abstract statement
  affinity fold higher than S-warfarin: approximately 3 fold
Recombinant CYP2C9*1 [1]; recombinant CYP2C9
  Ki fold lower than the Km for S-warfarin: approximately 2.5 fold
[2]
  Ki fold lower than the observed microsomal Km for S-warfarin: 2.4 fold
[2]; [7]
  mechanism: competitive

## CC(=O)CC(c1ccc(O)cc1)c1c(O)c2ccccc2oc1=O (centres unmarked) [4′OHWAR, 4′-hydroxywarfarin]
[2]; [7]
  mechanism: competitive
[2]
  Ki fold above the Km for S-warfarin: approximately 3 fold
Plasma proteins
  affinity for human plasma albumin: comparable to that of warfarin

## CC(=O)CC(c1ccccc1)c1c(O)c2cccc(O)c2oc1=O (centres unmarked) [8OHWAR, 8-hydroxywarfarin]
[2]; [7]
  mechanism: competitive
[2]
  Ki fold above the Km for S-warfarin: approximately 3 fold
Plasma proteins
  fold lower affinity for plasma proteins than warfarin: 3- to 4 fold

## CC(=O)C[C@@H](c1ccccc1)c1c(O)c2ccccc2oc1=O [S-warfarin]
Recombinant CYP2C9*1 [3]
  Km: 3.3 µM
[4]
  Km: 7.5 µM
Recombinant CYP2C9*1 [5]
  Km: 2.3 µM
  Vmax: 68 pmol/min/nmol P450
[6]
  Km: 5.2 µM
  Vmax: 173 pmol/min/mg protein

## CC(=O)CC(c1ccccc1)c1c(O)c2ccc(O)cc2oc1=O (centres unmarked) [7OHWAR, 7-hydroxywarfarin]
Recombinant CYP2C9
  IC50 fold higher than that observed for warfarin: approximately 8 fold
Recombinant CYP2C9*1 [1]; [8]
  mechanism: competitive
[2]
  Ki fold above the Km for S-warfarin: 8.5 fold
[2]; [8]
  mechanism: competitive
Plasma proteins
  fold lower affinity for plasma proteins than warfarin: 3- to 4 fold

Source: article PMC5406237 (Chemical research in toxicology, 2010)
